{"source": "patent US9809623B2", "about": "“α4β7 peptide monomer and dimer antagonists” (Protagonist Therapeutics, Inc., priority 2014, dated 2017)", "note": "Numbered stars: 1 amine (or outer) side, 2 acyl side, 3 side chain; on linkers, the order of the positions; unused ones are H or OH. Bridge positions count the residues as written; N and C are the ends. Square brackets hold non-standard residues; d marks the D form. Peptide text beside a SMILES is read from it. I, II: the chains in the order shown. Phe(4-COOH) = N[C@@H](Cc1ccc(C(=O)O)cc1)C(=O)O; Phe(4-tBu) = CC(C)(C)c1ccc(C[C@H](N)C(=O)O)cc1; Bip = N[C@@H](Cc1ccc(-c2ccccc2)cc1)C(=O)O; 1Nal = N[C@@H](Cc1cccc2ccccc12)C(=O)O; Diglycolyl = O=C(COCC(=O)[*:2])[*:1]; NMeR = CN[C@@H](CCCNC(=N)N)C(=O)O; β3hE = N[C@@H](CCC(=O)O)CC(=O)O; NMeK = CN[C@@H](CCCCN)C(=O)O; Pen = CC(C)(S)[C@H](N)C(=O)O; dNMeK = CN[C@H](CCCCN)C(=O)O", "data": [{"molecular_target": "α4β7 (Homo sapiens, UniProt P13612+P26010)", "sequence (P13612 34-1032)": "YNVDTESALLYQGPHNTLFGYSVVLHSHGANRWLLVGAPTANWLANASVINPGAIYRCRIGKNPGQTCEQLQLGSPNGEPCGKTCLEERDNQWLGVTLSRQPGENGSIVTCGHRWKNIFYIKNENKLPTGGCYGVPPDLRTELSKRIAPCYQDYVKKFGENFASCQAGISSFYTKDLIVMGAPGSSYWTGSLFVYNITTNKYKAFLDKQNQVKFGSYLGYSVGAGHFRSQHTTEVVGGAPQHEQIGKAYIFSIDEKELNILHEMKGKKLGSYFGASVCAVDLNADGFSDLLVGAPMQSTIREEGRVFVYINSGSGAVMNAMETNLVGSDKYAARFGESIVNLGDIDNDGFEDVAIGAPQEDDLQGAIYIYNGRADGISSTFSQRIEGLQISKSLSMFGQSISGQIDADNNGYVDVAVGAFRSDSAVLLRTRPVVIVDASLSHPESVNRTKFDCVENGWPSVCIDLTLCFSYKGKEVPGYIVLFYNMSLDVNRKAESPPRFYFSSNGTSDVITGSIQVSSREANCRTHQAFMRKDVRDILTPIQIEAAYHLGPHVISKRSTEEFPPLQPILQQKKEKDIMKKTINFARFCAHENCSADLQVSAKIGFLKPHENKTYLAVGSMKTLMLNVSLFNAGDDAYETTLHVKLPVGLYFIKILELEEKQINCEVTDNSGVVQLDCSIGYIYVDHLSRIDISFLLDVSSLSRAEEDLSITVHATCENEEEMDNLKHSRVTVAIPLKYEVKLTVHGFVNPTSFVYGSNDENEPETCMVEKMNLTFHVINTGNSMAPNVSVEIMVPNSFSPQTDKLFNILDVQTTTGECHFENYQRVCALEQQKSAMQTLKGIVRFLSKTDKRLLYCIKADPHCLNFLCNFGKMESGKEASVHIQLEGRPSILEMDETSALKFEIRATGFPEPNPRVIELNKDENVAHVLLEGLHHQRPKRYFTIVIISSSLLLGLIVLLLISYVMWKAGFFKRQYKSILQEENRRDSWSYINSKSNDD", "sequence (P26010 20-798)": "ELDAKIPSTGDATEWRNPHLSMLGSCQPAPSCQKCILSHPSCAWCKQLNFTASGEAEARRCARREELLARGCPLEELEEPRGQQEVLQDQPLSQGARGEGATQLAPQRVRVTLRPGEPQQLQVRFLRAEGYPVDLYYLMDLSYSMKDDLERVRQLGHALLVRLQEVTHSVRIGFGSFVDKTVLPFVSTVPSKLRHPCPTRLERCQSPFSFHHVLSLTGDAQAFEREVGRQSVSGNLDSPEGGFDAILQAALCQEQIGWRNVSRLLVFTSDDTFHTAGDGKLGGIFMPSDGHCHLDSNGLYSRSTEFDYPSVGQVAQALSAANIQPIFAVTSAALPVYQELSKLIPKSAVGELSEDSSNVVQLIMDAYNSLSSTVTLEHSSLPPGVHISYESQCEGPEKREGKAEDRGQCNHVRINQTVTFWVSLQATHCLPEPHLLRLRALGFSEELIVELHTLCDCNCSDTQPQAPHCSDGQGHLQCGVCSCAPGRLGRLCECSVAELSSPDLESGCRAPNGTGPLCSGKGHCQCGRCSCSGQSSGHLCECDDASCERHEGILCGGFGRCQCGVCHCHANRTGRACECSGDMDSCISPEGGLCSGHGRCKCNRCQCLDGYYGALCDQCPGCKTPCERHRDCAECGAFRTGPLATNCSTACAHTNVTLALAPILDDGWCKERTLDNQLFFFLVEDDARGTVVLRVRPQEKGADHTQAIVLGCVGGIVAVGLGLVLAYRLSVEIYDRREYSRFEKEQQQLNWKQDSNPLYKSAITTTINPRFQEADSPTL", "test": "PBMC Memory T Cell Adhesion Assay, adhesion to MAdCAM-1", "format": "cell-based", "conditions": "Table 3-B; range classes; read-out: PBMC IC50", "method": "Fresh CD4+/CD45RO+ memory T cells were isolated from human peripheral blood mononuclear cell (PBMC) donors by Aragen Bioscience Inc. (Morgan Hill, Calif.). The assay plate was prepared using IgG Fc capture antibody (donkey anti human) immobilized at 500 ng/well in 50 mM sodium bicarbonate buffer, pH 9.5, ON, 4C onto a Greiner Fluotrac plate (100 ul per well). The plate was rinsed two time with Blocking Buffer (25 mM Tris HCl, pH7.5, 150 mM NaCl, 1.5% BSA, 0.05% Tween), and blocked with Blocking Buffer for 2 hours at 37 C or 5 hours at RT using 200 ul per well. The Blocking Buffer was removed and either MAdCAM-1 or VCAM-1 at 400 ng/well in Blocking Buffer was added and the plate incubated overnight at 4C (100 ul per well). The plate was washed two times with Blocking Buffer, and rinsed once with 200 ul Binding Media (DMEM phenol red free, 10 mM HEPES, 1×Na pyruvate, 1× Glutamine, and supplemented with 1 mM MnCl2 prior to use). To prepare cells, approximately 25 million CD4+/CD45RO+ memory T cells were counted by trypan blue exclusion using a haemocytometer to determine viability and cell count. The cells were transferred to a 50 ml conical tube, and centrifuged at 1200 rpm for 10 minute. The media was aspirated and the cell pellet resuspended in 15 ml Binding Media. The cells were centrifuged again and resuspended in the appropriate amount of Binding Media to be used for assays (50 ul of cells per well at 2× the final density). To each well, and equal volume (50 ul) of test compound was added and the plate was incubated for 1.5 hours at 37 C, 5% CO2. Each well was rinsed 3× with 150 ul per well of Binding Media. […] The plate was incubated at 37 C, 5% CO2, for 45 minutes. The plate was protected from light by using black adhesive seals. Fluorescence intensity was measured using a Molecular Devices Gemini EM Fluorescent Plate Reader (Ex 485/Em530, Bottom Read, Reading Sensitivity=20). IC50 curves are generated using Graph Pad Prism and the curves analyzed using analyzed using a non-linear regression (four parameters) algorithm. The log (concentration) versus RFU (Ex485/Em530) was plotted to determine IC50 values.", "units": {"IC50": "nM"}, "values": [{"smiles": "CC(=O)N[C@@H]1C(=O)N(C)[C@@H](CCCNC(=N)N)C(=O)N[C@@H](CO)C(=O)N[C@@H](CC(=O)O)C(=O)N[C@@H]([C@@H](C)O)C(=O)N[C@@H](CC(C)C)C(=O)N[C@H](C(=O)N[C@@H](Cc2ccc(C(=O)O)cc2)C(=O)N[C@@H](CCC(=O)O)C(=O)N[C@H](CCCCNC(=O)COCC(=O)NCCCC[C@@H](NC(=O)[C@H](CCC(=O)O)NC(=O)[C@H](Cc2ccc(C(=O)O)cc2)NC(=O)[C@H]2NC(=O)[C@H](CC(C)C)NC(=O)[C@H]([C@@H](C)O)NC(=O)[C@H](CC(=O)O)NC(=O)[C@H](CO)NC(=O)[C@H](CCCNC(=N)N)N(C)C(=O)[C@@H](NC(C)=O)C(C)(C)SSC2(C)C)C(N)=O)C(N)=O)C(C)(C)SSC1(C)C", "note": "[compound 129] (I: Ac-[Pen][NMeR]SDTL[Pen][Phe(4-COOH)]E[dK]-NH2 / II: Ac-[Pen][NMeR]SDTL[Pen][Phe(4-COOH)]E[dK]-NH2; disulfide I:1-I:7, II:1-II:7; linker I:10-II:10 via Diglycolyl)", "IC50": "< 10"}]}, {"molecular_target": "T1, α4β7 (Mus musculus, UniProt P26011+Q00651)", "T1 construct": "host or cells: TK1 mouse T cells", "T1 sequence (Q00651 34-1039 limits assumed)": "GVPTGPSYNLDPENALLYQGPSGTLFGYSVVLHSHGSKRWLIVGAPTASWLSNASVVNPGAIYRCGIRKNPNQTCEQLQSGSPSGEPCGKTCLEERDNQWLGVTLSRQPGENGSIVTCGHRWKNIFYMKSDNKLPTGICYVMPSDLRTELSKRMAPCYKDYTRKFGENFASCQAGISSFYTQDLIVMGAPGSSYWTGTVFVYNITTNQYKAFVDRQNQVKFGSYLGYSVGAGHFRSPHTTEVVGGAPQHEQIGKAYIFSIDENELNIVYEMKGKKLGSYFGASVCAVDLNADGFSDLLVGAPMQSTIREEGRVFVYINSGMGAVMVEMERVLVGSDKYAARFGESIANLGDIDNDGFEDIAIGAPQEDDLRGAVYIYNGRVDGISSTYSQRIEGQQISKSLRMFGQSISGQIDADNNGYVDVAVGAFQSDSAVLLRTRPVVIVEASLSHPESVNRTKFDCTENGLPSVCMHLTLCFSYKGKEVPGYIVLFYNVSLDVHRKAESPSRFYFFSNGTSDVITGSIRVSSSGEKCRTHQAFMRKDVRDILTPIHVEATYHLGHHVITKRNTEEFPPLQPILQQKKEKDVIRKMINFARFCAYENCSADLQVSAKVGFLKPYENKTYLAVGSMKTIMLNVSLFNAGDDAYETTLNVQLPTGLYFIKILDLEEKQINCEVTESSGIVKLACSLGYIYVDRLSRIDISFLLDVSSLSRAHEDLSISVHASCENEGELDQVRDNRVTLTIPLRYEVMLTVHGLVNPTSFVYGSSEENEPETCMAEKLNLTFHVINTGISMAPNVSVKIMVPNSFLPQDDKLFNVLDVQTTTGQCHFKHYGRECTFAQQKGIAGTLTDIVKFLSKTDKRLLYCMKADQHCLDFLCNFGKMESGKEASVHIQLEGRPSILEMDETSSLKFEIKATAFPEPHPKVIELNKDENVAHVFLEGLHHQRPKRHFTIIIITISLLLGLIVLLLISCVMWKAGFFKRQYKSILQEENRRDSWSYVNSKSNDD", "T1 sequence (P26011 20-806)": "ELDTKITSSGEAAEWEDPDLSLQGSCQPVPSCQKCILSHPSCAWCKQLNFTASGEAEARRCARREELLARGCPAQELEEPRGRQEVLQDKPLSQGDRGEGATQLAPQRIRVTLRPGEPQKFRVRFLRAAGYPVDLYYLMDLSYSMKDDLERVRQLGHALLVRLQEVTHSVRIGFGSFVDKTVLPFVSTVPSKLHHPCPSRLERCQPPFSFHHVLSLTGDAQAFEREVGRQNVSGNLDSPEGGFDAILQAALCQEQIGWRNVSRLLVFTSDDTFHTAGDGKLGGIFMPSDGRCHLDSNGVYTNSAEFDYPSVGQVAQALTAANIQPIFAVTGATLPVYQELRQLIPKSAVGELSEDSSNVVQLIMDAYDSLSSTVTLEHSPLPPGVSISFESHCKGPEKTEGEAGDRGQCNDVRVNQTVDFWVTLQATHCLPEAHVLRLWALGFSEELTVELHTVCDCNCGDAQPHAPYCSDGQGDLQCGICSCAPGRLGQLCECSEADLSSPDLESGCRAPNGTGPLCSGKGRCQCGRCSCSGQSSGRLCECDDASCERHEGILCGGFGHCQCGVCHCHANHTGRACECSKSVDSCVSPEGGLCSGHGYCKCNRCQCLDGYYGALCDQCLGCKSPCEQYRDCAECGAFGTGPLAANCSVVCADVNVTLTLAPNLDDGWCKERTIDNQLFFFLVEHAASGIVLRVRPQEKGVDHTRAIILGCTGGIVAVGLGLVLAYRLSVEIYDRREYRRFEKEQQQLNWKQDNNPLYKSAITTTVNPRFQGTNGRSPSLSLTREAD", "test": "α4β7 Cell Adhesion Assay (Mouse), TK1 cells", "format": "cell-based", "conditions": "Table 3-B, Potency (α4β7); range classes; read-out: α4β7 cell(MU) IC50", "method": "TK1 cells (ATCC # ATCC-CRL-2396) were cultured in RPMI 1640 with 2 mM L-glutamine adjusted to contain 1.5 g/L sodium bicarbonate, 4.5 g/L glucose, 10 mM HEPES, and 1.0 mM sodium pyruvate (ATCC#30-2001) and supplemented with 0.1 mM non-essential amino acids, (ATCC #30-2116) 0.05 mM 2-mercaptoethanol (Invitrogen #21985) and 10% serum (Fetal Bovine Serum, Invitrogen #16140-071), and Penicillin-Streptomycin (Invitrogen #15140-122) at 100 units of penicillin and 100 μg of streptomycin per ml. The cells were washed two times in DMEM medium (ATCC #30-2002) supplemented with 0.1% BSA, 10 mM HEPES pH 7 and 1 mM MnCl2. The cells were re-suspended in supplemented DMEM medium at a density of 4×10^6 cells/ml.\nA Nunc MaxiSorp plate was coated with Recombinant human MAdCAM-1 Fc Chimera (R&D #6065-MC) at 200 ng per well in 100 μl per well in 1×PBS and incubated at 4° C. overnight. The solution was then removed by shaking, blocked with 250 ul per well PBS containing 1% BSA, and incubated at 37° C. for 1 hr. The solution was removed by shaking. DATK 32 (anti-mouse α4β7) and peptides were diluted by serial dilution in a final volume of 50 ul per well (2× concentration). To each well, 50 ul of cells (200,000 cells) are added and the plate is incubated at 37° C., 5% CO2 for 30-45 min to allow cell adhesion. The plate was manually washed three times with supplemented DMEM, 100 ul per wash. After the final wash, 100 ul/well of supplemented DMEM and […] of MTT reagent (ATTC cat#30-1010K) was added to each well. Wells were incubated at 37° C. with 5% CO2 for 2-3 hrs until purple precipitate was visible. 100 μl of Detergent Reagent (ATTC cat#30-1010K) was added to each well. The plate was then wrapped with Para film to prevent evaporation, and left overnight at room temperature in the dark. The plate was shaken for 5 min and the absorbance at 570 nm was measured. To calculate the dose response, the absorbance value of control wells not containing cells was subtracted from each test well.", "units": {"IC50": "nM"}, "values": [{"smiles": "CC(=O)N[C@@H]1C(=O)N(C)[C@@H](CCCNC(=N)N)C(=O)N[C@@H](CO)C(=O)N[C@@H](CC(=O)O)C(=O)N[C@@H]([C@@H](C)O)C(=O)N[C@@H](CC(C)C)C(=O)N[C@H](C(=O)N[C@@H](Cc2cccc3ccccc23)C(=O)N[C@@H](CCC(=O)O)C(=O)N(C)[C@H](CCCCNC(=O)COCC(=O)NCCCC[C@H](C(N)=O)N(C)C(=O)[C@H](CCC(=O)O)NC(=O)[C@H](Cc2cccc3ccccc23)NC(=O)[C@H]2NC(=O)[C@H](CC(C)C)NC(=O)[C@H]([C@@H](C)O)NC(=O)[C@H](CC(=O)O)NC(=O)[C@H](CO)NC(=O)[C@H](CCCNC(=N)N)N(C)C(=O)[C@@H](NC(C)=O)C(C)(C)SSC2(C)C)C(N)=O)C(C)(C)SSC1(C)C", "note": "[compound 44] (I: Ac-[Pen][NMeR]SDTL[Pen][1Nal]E[dNMeK]-NH2 / II: Ac-[Pen][NMeR]SDTL[Pen][1Nal]E[dNMeK]-NH2; disulfide I:1-I:7, II:1-II:7; linker I:10-II:10 via Diglycolyl)", "IC50": "< 10"}, {"smiles": "CC(=O)N[C@@H]1C(=O)N(C)[C@@H](CCCNC(=N)N)C(=O)N[C@@H](CO)C(=O)N[C@@H](CC(=O)O)C(=O)N[C@@H]([C@@H](C)O)C(=O)N[C@@H](CC(C)C)C(=O)N[C@H](C(=O)N[C@@H](Cc2c[nH]c3ccccc23)C(=O)N[C@@H](CCC(=O)O)C(=O)N[C@H](CCCCNC(=O)COCC(=O)NCCCC[C@@H](NC(=O)[C@H](CCC(=O)O)NC(=O)[C@H](Cc2c[nH]c3ccccc23)NC(=O)[C@H]2NC(=O)[C@H](CC(C)C)NC(=O)[C@H]([C@@H](C)O)NC(=O)[C@H](CC(=O)O)NC(=O)[C@H](CO)NC(=O)[C@H](CCCNC(=N)N)N(C)C(=O)[C@@H](NC(C)=O)C(C)(C)SSC2(C)C)C(N)=O)C(N)=O)C(C)(C)SSC1(C)C", "note": "[compound 67] (I: Ac-[Pen][NMeR]SDTL[Pen]WE[dK]-NH2 / II: Ac-[Pen][NMeR]SDTL[Pen]WE[dK]-NH2; disulfide I:1-I:7, II:1-II:7; linker I:10-II:10 via Diglycolyl)", "IC50": "< 10"}, {"smiles": "CC(=O)N[C@@H]1C(=O)N(C)[C@@H](CCCNC(=N)N)C(=O)N[C@@H](CO)C(=O)N[C@@H](CC(=O)O)C(=O)N[C@@H]([C@@H](C)O)C(=O)N[C@@H](CC(C)C)C(=O)N[C@H](C(=O)N[C@@H](Cc2c[nH]c3ccccc23)C(=O)N[C@@H](CCC(=O)O)C(=O)N[C@H](CCCCNC(=O)COCC(=O)NCCCC[C@@H](NC(=O)[C@H](CCC(=O)O)NC(=O)[C@H](Cc2c[nH]c3ccccc23)NC(=O)[C@H]2NC(=O)[C@H](CC(C)C)NC(=O)[C@H]([C@@H](C)O)NC(=O)[C@H](CC(=O)O)NC(=O)[C@H](CO)NC(=O)[C@H](CCCNC(=N)N)N(C)C(=O)[C@@H](NC(C)=O)C(C)(C)SSC2(C)C)C(=O)O)C(=O)O)C(C)(C)SSC1(C)C", "note": "[compound 78] (I: Ac-[Pen][NMeR]SDTL[Pen]WE[dK]-OH / II: Ac-[Pen][NMeR]SDTL[Pen]WE[dK]-OH; disulfide I:1-I:7, II:1-II:7; linker I:10-II:10 via Diglycolyl)", "IC50": "< 10"}, {"smiles": "CC(=O)N[C@@H]1C(=O)N(C)[C@@H](CCCNC(=N)N)C(=O)N[C@@H](CO)C(=O)N[C@@H](CC(=O)O)C(=O)N[C@@H]([C@@H](C)O)C(=O)N[C@@H](CC(C)C)C(=O)N[C@H](C(=O)N[C@@H](Cc2ccc(C(=O)O)cc2)C(=O)N[C@@H](CCC(=O)O)CC(=O)N(C)[C@@H](CCCCNC(=O)COCC(=O)NCCCC[C@@H](C(N)=O)N(C)C(=O)C[C@H](CCC(=O)O)NC(=O)[C@H](Cc2ccc(C(=O)O)cc2)NC(=O)[C@H]2NC(=O)[C@H](CC(C)C)NC(=O)[C@H]([C@@H](C)O)NC(=O)[C@H](CC(=O)O)NC(=O)[C@H](CO)NC(=O)[C@H](CCCNC(=N)N)N(C)C(=O)[C@@H](NC(C)=O)C(C)(C)SSC2(C)C)C(N)=O)C(C)(C)SSC1(C)C", "note": "[compound 148] (I: Ac-[Pen][NMeR]SDTL[Pen][Phe(4-COOH)][β3hE][NMeK]-NH2 / II: Ac-[Pen][NMeR]SDTL[Pen][Phe(4-COOH)][β3hE][NMeK]-NH2; disulfide I:1-I:7, II:1-II:7; linker I:10-II:10 via Diglycolyl)", "IC50": "< 10"}, {"smiles": "CC(=O)N[C@@H]1C(=O)N(C)[C@@H](CCCNC(=N)N)C(=O)N[C@@H](CO)C(=O)N[C@@H](CC(=O)O)C(=O)N[C@@H]([C@@H](C)O)C(=O)N[C@@H](CC(C)C)C(=O)N[C@H](C(=O)N[C@@H](Cc2ccc(-c3ccccc3)cc2)C(=O)N[C@@H](CCC(=O)O)CC(=O)N(C)[C@@H](CCCCNC(=O)COCC(=O)NCCCC[C@@H](C(N)=O)N(C)C(=O)C[C@H](CCC(=O)O)NC(=O)[C@H](Cc2ccc(-c3ccccc3)cc2)NC(=O)[C@H]2NC(=O)[C@H](CC(C)C)NC(=O)[C@H]([C@@H](C)O)NC(=O)[C@H](CC(=O)O)NC(=O)[C@H](CO)NC(=O)[C@H](CCCNC(=N)N)N(C)C(=O)[C@@H](NC(C)=O)C(C)(C)SSC2(C)C)C(N)=O)C(C)(C)SSC1(C)C", "note": "[compound 150] (I: Ac-[Pen][NMeR]SDTL[Pen][Bip][β3hE][NMeK]-NH2 / II: Ac-[Pen][NMeR]SDTL[Pen][Bip][β3hE][NMeK]-NH2; disulfide I:1-I:7, II:1-II:7; linker I:10-II:10 via Diglycolyl)", "IC50": "< 10"}, {"smiles": "CC(=O)N[C@@H]1C(=O)N(C)[C@@H](CCCNC(=N)N)C(=O)N[C@@H](CO)C(=O)N[C@@H](CC(=O)O)C(=O)N[C@@H]([C@@H](C)O)C(=O)N[C@@H](CC(C)C)C(=O)N[C@H](C(=O)N[C@@H](Cc2ccc(C(C)(C)C)cc2)C(=O)N[C@@H](CCC(=O)O)CC(=O)N[C@H](CCCCN)C(N)=O)C(C)(C)SSC1(C)C", "note": "[compound 153] (Ac-[Pen][NMeR]SDTL[Pen][Phe(4-tBu)][β3hE][dK]-NH2; disulfide 1-7)", "IC50": "10 to 25"}]}]}
